The results in this text go back to patent US8314092B2, “Substituted [(5H-pyrrolo[2,1-c][1,4]benzodiazepin-11-yl)piperazin-1-yl]-2,2-dimethylpropanoic acid compounds as dual activity H1 inverse agonists/5-HT2A antagonists” (Eli Lilly and Company, priority 2011, dated 2012).

Structures can show the parent of a compound that is named as a salt.

In test [1] the target is 5-HT1F (Homo sapiens, UniProt P30939). Description: 5-HT1F binding. The text has this: (§1) Further, the compounds of the invention may be tested in binding assays and functional activity assays by well known methods for other physiologically important receptors such as, but not limited to, the hERG channel, other serotonin receptors (specifically 5-HT1A, 5-HT1B, 5-HT1D, 5-HT1E, 5-HT1F receptors, lack of agonist activity at 5-HT2B receptors, 5-HT2C, 5-HT4, 5-HTS, 5-HT6, and 5-HT7 receptors), muscarinic receptors, dopaminergic receptors (specifically D1, D2, and D3), GABAA receptors, adrenergic receptors and monoamine transporters. Certain exemplified compounds are tested at these receptors and are shown to lack significant activity.

Test [2] deals with Dopamine D2 (Homo sapiens, UniProt P14416). Description: Dopamine D2 binding.
Description: as §1

Test [3] has as its target Adrenergic alpha2B (Homo sapiens, UniProt P18089). Put plainly: Adrenergic alpha2B binding.
Description: as §1

Test [4] deals with Dopamine Transporter (Homo sapiens, UniProt Q01959). Put plainly: Dopamine transporter assay. The class given is binding. As to conditions: dihydrochloride.
Description: as §1

In test [5] the target is Adrenergic alpha2A (Homo sapiens, UniProt P08913). Description: Adrenergic alpha2A binding.
Description: as §1

The target in test [6] is 5-HT1D (Homo sapiens, UniProt P28221). Description: 5-HT1D binding.
Description: as §1

For test [7], the target named is Serotonin Transporter (Homo sapiens, UniProt P31645). Description: Serotonin transporter assay. Format: binding. As to conditions: dihydrochloride.
Description: as §1

In test [8] the target is 5-HT6 (Homo sapiens, UniProt P50406). Put plainly: 5-HT6 binding.
Description: as §1

In test [9] the target is T1, recombinant 5-HT2c receptor (human) (Homo sapiens, UniProt P28335).
T1 construct: expressed in transfected cells
Put plainly: 5-HT2c competition binding assay ([125I]-DOI SPA). On the procedure: [^125I]-(±)DOI binding experiments are carried out in SPA 96-well format. Membranes used in this assay are prepared from AV-12 cells stably expressing recombinant 5-HT2c receptor (human). The incubation is initiated by the addition of a mixture of WGA PVT SPA beads (0.5 mg/well, Perkin Elmer (MA, USA), RPNQ0001) and 2.5 μg membranes to assay buffer (50 mM Tris-HCl, 10 mM MgCl2, 0.5 mM EDTA, 10 μM pargyline, 0.1% ascorbic acid, pH7.4) containing 0.2 nM [[^125I]-(±)DOI and varying concentrations of the test compound (10 point concentration response curves). Non-specific binding is determined in the presence of 20 μM 1-(1-Naphthyl)piperazine. Samples are incubated for four hours at room temperature (22° C.) and then read in a Microbeta Trilux.
Curves are evaluated using a 4-parameter logistic nonlinear equation to obtain the concentration of competitor causing 50% inhibition of radioligand binding (IC50). Equilibrium dissociation constants (Ki) are calculated according to the equation Ki=IC50/(1+L/Kd), where L equals the concentration of radioligand used in the experiment and Kd equals the equilibrium dissociation constant of the radioligand for the receptor, determined from standard saturation analysis or homologous competition experiments. […]

Test [10] concerns the target 5-HT5 (Homo sapiens, UniProt P47898). Description: 5-HT5 binding.
Description: as §1

In test [11] the target is Adrenergic alpha2C (Homo sapiens, UniProt P18825). Put plainly: Adrenergic alpha2C binding.
Description: as §1

The target of test [12] is Dopamine D1 (Homo sapiens, UniProt P21728). Description: Dopamine D1 binding.
Description: as §1

Serotonin Transporter, sequence (P31645 whole entry): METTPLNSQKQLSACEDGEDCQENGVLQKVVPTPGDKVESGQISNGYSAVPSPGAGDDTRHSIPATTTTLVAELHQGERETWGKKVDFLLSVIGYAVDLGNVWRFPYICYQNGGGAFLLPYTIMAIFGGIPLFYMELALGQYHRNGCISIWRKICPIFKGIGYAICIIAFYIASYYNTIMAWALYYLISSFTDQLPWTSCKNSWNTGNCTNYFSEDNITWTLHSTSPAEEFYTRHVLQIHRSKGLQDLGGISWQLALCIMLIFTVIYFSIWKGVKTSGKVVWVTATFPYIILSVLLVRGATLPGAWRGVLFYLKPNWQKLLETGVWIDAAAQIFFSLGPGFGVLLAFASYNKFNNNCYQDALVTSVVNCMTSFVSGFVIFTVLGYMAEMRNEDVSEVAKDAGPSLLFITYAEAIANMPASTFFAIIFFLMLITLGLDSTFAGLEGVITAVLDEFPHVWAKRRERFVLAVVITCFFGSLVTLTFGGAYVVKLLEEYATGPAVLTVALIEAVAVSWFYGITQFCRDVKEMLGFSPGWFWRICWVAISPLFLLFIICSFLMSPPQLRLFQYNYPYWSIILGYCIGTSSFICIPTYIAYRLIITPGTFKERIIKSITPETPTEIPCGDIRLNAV
Adrenergic alpha2A, sequence (P08913 whole entry): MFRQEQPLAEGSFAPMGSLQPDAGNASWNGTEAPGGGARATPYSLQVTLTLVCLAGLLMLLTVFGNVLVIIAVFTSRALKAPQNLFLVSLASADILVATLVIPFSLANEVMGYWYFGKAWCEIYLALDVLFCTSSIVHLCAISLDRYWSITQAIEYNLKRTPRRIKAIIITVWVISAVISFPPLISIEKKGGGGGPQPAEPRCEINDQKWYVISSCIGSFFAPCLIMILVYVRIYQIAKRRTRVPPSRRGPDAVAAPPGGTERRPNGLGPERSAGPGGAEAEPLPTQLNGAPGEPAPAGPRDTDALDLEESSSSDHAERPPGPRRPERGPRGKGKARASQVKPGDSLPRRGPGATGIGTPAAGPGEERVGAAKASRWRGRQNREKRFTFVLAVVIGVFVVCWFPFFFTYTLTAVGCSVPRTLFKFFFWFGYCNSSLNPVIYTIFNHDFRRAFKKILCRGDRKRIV
5-HT1F, sequence (P30939 whole entry, species assumed): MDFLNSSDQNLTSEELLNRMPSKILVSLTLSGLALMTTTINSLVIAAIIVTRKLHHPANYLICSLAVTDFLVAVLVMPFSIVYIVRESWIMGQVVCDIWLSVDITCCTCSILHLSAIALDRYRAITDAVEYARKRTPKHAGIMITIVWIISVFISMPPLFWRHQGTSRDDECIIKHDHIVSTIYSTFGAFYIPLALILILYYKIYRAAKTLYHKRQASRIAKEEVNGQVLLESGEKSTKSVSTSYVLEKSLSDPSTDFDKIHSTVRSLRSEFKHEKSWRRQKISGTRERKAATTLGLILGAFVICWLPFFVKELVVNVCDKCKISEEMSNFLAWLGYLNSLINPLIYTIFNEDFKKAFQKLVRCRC
Adrenergic alpha2B, sequence (P18089 whole entry): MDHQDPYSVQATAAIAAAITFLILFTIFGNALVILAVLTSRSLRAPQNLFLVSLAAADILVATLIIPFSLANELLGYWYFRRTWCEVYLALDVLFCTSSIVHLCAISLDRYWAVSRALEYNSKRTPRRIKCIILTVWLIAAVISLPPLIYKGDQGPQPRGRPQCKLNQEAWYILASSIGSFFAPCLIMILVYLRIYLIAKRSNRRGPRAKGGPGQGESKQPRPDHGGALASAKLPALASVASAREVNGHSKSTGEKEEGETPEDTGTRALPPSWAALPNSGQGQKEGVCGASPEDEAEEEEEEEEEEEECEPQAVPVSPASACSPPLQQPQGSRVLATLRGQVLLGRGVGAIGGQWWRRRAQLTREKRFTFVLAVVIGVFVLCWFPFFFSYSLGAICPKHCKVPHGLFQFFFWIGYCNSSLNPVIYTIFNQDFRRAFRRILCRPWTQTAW
5-HT1D, sequence (P28221 whole entry, species assumed): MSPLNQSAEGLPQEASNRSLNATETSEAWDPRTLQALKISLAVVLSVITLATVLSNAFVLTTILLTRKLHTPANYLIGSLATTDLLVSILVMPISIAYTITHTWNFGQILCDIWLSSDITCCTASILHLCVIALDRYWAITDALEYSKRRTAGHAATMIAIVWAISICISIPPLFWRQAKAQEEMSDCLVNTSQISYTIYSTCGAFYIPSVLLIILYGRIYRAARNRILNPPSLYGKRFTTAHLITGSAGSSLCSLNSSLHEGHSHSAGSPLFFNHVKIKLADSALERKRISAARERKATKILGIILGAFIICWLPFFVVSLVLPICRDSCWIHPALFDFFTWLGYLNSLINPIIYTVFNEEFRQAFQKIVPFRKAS
5-HT5, sequence (P47898 whole entry, species assumed): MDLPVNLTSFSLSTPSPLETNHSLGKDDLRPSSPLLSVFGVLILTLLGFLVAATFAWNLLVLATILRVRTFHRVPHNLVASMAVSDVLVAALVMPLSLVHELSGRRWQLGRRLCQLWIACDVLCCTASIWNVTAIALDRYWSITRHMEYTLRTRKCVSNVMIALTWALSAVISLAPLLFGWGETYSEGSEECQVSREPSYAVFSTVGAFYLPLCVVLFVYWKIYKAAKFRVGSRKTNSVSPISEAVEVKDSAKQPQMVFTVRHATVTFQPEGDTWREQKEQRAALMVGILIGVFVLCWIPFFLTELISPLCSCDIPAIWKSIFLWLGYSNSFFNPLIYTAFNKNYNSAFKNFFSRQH
5-HT6, sequence (P50406 whole entry, species assumed): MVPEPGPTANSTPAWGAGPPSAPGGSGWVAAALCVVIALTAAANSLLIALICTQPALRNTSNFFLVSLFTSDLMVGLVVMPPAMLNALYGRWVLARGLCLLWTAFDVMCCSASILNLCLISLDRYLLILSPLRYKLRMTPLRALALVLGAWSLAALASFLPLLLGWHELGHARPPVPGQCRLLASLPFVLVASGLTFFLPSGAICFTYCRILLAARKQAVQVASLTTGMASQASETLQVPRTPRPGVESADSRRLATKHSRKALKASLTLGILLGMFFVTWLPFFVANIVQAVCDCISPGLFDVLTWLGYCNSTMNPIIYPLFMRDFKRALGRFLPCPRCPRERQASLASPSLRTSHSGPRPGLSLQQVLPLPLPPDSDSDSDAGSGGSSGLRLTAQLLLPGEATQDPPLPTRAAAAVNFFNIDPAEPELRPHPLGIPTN
Dopamine D1, sequence (P21728 whole entry): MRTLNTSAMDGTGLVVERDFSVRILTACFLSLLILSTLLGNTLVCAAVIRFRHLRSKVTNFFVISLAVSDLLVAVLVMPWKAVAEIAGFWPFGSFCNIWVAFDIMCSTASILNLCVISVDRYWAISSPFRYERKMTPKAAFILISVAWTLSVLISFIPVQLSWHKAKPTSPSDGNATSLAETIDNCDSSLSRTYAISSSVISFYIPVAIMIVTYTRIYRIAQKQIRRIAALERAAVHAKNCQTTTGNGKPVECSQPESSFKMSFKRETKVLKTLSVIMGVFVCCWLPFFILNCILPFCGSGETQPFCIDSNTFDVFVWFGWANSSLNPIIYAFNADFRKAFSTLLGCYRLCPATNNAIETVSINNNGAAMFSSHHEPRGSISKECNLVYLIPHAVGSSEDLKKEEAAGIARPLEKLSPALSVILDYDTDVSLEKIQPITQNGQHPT
Dopamine D2, sequence (P14416 whole entry): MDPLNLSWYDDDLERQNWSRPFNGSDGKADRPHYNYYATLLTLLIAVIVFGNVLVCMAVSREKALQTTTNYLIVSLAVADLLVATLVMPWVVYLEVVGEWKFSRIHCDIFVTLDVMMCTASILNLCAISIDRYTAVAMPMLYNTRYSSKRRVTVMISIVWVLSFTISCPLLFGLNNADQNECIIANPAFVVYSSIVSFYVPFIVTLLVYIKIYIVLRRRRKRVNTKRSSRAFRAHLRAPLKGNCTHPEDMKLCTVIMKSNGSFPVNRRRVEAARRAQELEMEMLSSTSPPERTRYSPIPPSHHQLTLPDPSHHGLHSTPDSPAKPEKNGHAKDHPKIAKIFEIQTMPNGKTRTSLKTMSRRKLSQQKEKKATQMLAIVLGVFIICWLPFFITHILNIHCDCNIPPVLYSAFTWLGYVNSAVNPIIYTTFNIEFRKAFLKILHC
Adrenergic alpha2C, sequence (P18825 whole entry): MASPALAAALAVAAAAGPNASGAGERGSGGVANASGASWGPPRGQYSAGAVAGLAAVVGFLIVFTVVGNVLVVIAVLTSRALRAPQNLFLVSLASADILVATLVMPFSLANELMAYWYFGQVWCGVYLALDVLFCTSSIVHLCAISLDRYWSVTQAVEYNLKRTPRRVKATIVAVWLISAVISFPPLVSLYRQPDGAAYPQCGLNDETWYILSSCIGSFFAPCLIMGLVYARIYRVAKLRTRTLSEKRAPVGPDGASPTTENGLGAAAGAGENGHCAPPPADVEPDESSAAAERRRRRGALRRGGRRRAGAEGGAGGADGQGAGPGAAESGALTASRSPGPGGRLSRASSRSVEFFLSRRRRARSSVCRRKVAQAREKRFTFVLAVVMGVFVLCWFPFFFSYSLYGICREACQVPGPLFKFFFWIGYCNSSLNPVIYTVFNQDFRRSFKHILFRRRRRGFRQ
T1 sequence (P28335 33-458): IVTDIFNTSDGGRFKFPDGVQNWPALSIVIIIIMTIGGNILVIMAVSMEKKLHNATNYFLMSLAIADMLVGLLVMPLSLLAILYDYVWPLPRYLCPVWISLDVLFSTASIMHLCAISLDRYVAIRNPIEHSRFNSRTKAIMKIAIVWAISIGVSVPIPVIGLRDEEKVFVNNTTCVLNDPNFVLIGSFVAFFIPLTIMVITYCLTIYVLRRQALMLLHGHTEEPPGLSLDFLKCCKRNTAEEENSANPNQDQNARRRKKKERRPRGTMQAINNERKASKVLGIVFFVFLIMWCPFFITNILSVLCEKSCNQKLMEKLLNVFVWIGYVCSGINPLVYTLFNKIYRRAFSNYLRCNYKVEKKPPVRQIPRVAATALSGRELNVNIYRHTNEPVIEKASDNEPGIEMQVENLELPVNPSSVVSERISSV

Take `Cc1cc2n(c1)Cc1cc(Cl)ccc1N=C2N1CCN(CC(C)(C)C(=O)O)CC1` [Example 13, 3-[4-(7-Chloro-2-methyl-5H-pyrrolo[2,1-c][1,4]benzodiazepin-11-yl)piperazin-1-yl]-2,2-dimethylpropanoic acid dihydrochloride]: the Ki (as a rule, the equilibrium dissociation constant of an inhibitor or competing ligand from its target) is > 8.25 µM in [1]; 3.42 µM in [2]; > 4.8 µM in [3]; > 8.47 µM in test [5]; > 8.55 µM in test [6]; > 5.83 µM in test [8]. The Ki in [9] is 2.37 µM; in test [10], > 9.09 µM; in test [11] it was > 5.33 µM; in test [12], 1.86 µM. For the same compound, the “Dopamine Transporter” value in test [4] was >880. The “Serotonin Transporter” value in test [7] is given as >515.
